Laboratory results taken from the supplement of paper PMC8671470.
± gives the standard deviation of the averaged measurements.

Columns and labels:
Settings in all cases: 72 h
HL-60 [1] = assay: cell viability (% survival relative to DMSO control); higher = less cytotoxic
Procedure, shortened: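 For each screen, HL-60 cells in RPMI 1640 with 10% FBS carried either DMSO or 100 nM of one of three metabolic inhibitors while the full library was applied at five tenfold concentrations, 1–10,000 nM, in duplicate. Plates were 384-well and were kept 72 h at 37 °C, 5% CO2. Viability, measured by CellTiter-Glo, was normalised to wells with DMSO and with 10 μM proteasome inhibitor. Where area under the curve appears, it was fitted by four-parameter log-logistic models in drc and PharmacoGx.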

HL-60 [2] = assay: cell viability (% survival relative to DMSO control, bortezomib = 0%); higher = less cytotoxic
Procedure, shortened: (§1)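 Fifteen myeloid leukaemia cell lines (10 AML, 5 CML) were seeded at a density titrated to the linear growth range into 384-well plates pre-printed with compounds at 1, 10, 100, 1000 or 10000 nM in duplicate. Plates were incubated for 72 h at 37 °C with 5% CO2. Viability was then read by CellTiter-Glo luminescence. Each value is percent survival averaged over the duplicates, with vehicle set to 100% and a 10 µM positive control to 0%.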

MOLM-13 = assay: as above
Procedure, shortened: as §1

THP-1 = assay: as above
Procedure, shortened: as §1

NOMO-1 [3] = assay: as above
Procedure, shortened: as §1

HEL = assay: as above
Procedure, shortened: as §1

BV-173 = assay: as above
Procedure, shortened: as §1

Mono-Mac-6 [4] = assay: as above
Procedure, shortened: as §1

MV4-11 [5] = assay: as above
Procedure, shortened: as §1

LAMA-84 = assay: as above
Procedure, shortened: as §1

ML-2 = assay: as above
Procedure, shortened: as §1

SHI-1 = assay: as above
Procedure, shortened: as §1

KG-1 = assay: as above
Procedure, shortened: as §1

KCL-22 = assay: as above
Procedure, shortened: as §1

KU-812 [6] = assay: as above
Procedure, shortened: as §1

K-562 [7] = assay: as above
Procedure, shortened: as §1

NOMO-1 [8] = tested on: NOMO-1
Procedure, shortened: (§2)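 Fifteen myeloid leukaemia lines in RPMI 1640 were treated for 72 h at 37 °C and 5% CO2 with five tenfold doses from 1 to 10,000 nM, in duplicate. ATP luminescence was normalised to vehicle and to a positive control at 10 µM, then fitted with a four-parameter log-logistic model. The IC50 came from these fits.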

Mono-Mac-6 [9] = tested on: Mono-Mac-6
Procedure, shortened: as §2

MV4-11 [10] = tested on: MV4-11
Procedure, shortened: as §2

KU-812 [11] = tested on: KU-812
Procedure, shortened: as §2

K-562 [12] = tested on: K-562
Procedure, shortened: as §2

O=c1cc(N2CCOCC2)oc2c(-c3ccccc3)cccc12
cell viability [%], HL-60 [1]
Settings	0.001 µM	0.01 µM	0.1 µM	1 µM	10 µM
co-treatment: AZD3965 100 nM	99.5 ± 2	101 ± 1.9	103.3 ± 0.19	100 ± 6.1	75.2 ± 6.2
co-treatment: DMSO vehicle	99.2 ± 1.9	100 ± 6.6	102 ± 3.3	91.6 ± 11	86 ± 1.8
co-treatment: GSK2194069 100 nM	107 ± 0.78	101.4 ± 0.35	105 ± 5	99.4 ± 1.9	84 ± 6.9
co-treatment: pictilisib 100 nM	110 ± 19	104 ± 1.6	103 ± 1.6	92.2 ± 13	79.6 ± 15

cell viability [%]
Settings	1 nM	10 nM	100 nM	1000 nM	10000 nM
BV-173	176	95.7	1.14	95.6	48
HEL	133	92.1	23.1	98.9	78.1
HL-60 [2]	130	118	103	0.801	0.404
K-562 [7]	135	104	90.3	6.74	0.516
KCL-22	123	104	90.5	98.9	45.1
KG-1	114	106	82.8	90.8	28.4
KU-812 [6]	115	100	56.3	95.1	54.8
LAMA-84	127	108	46.1	84.2	65.3
ML-2	143	103	17.6	89.4	54.9
MOLM-13	125	119	77.5	1.16	0.26
MV4-11 [5]	131	120	0.364	-0.297	-0.0959
Mono-Mac-6 [4]	116	103	95.3	83.2	40.7
NOMO-1 [3]	122	96	9.05	90.4	57.1
SHI-1	123	102	106	92.8	30.7
THP-1	116	94.1	99.8	95.8	59.3

Settings	IC50 (cell viability) [µM]
K-562 [12]	0.291
KU-812 [11]	> 10
MV4-11 [10]	0.0392
Mono-Mac-6 [9]	3.75
NOMO-1 [8]	0.0252

CCCCCOC(=O)Nc1nc(=O)n([C@@H]2O[C@H](C)[C@@H](O)[C@H]2O)cc1F [Capecitabine]
cell viability [%], HL-60 [1]
Settings	0.001 µM	0.01 µM	0.1 µM	1 µM	10 µM
co-treatment: AZD3965 100 nM	103 ± 7.9	95.72 ± 0.16	109 ± 4.4	102 ± 2.5	96.6 ± 4.8
co-treatment: DMSO vehicle	98.8 ± 8.1	100.39 ± 0.085	106 ± 3	99.7 ± 1.6	98.7 ± 3
co-treatment: GSK2194069 100 nM	103 ± 7	95.88 ± 0.56	99.36 ± 0.11	102 ± 1.4	95.6 ± 11
co-treatment: pictilisib 100 nM	104 ± 3.5	96.7 ± 12	95.4 ± 13	108 ± 4.2	113 ± 11

cell viability [%]
Settings	1 nM	10 nM	100 nM	1000 nM	10000 nM
BV-173	100	93.8	102	97.5	88.3
HEL	86.1	87	106	106	87.6
HL-60 [2]	104	85.2	109	101	72
K-562 [7]	97.4	92.5	82.9	99.9	93.3
KCL-22	118	85.4	66.3	109	85.2
KG-1	98.1	91.1	103	97.5	86.8
KU-812 [6]	90.7	93.3	104	102	89.9
LAMA-84	91.9	94.5	87.6	99	99.9
ML-2	107	95.5	86.1	94.1	98.3
MOLM-13	87.7	104	121	113	70.8
MV4-11 [5]	98.2	90.8	110	103	89.7
Mono-Mac-6 [4]	100	90.2	113	95.6	93.1
NOMO-1 [3]	99.5	100	94.9	93	99.9
SHI-1	102	99.1	97.1	107	96.7
THP-1	102	100	94.1	105	94.6

Settings	IC50 (cell viability) [µM]
K-562 [12]	> 10
KU-812 [11]	> 10
MV4-11 [10]	> 10
Mono-Mac-6 [9]	> 10
NOMO-1 [8]	> 10

O=c1c(-c2ccc(O)cc2)coc2cc(O[C@@H]3O[C@H](CO)[C@@H](O)[C@H](O)[C@H]3O)ccc12 [Daidzin]
cell viability [%], HL-60 [1]
Settings	0.001 µM	0.01 µM	0.1 µM	1 µM	10 µM
co-treatment: AZD3965 100 nM	94.4 ± 7.1	104 ± 6.6	102 ± 9.7	84.8 ± 30	107 ± 9.1
co-treatment: DMSO vehicle	96.2 ± 3.1	102 ± 5.1	101.7 ± 0.79	98.92 ± 0.91	99.7 ± 1.7
co-treatment: GSK2194069 100 nM	96.5 ± 3.9	105 ± 2.1	102 ± 3.5	98.7 ± 2.4	101 ± 11
co-treatment: pictilisib 100 nM	94 ± 11	103 ± 11	105 ± 3.9	67.6 ± 43	98.5 ± 12

cell viability [%]
Settings	1 nM	10 nM	100 nM	1000 nM	10000 nM
BV-173	94	87.4	92.4	125	91.8
HEL	93	93.7	107	105	102
HL-60 [2]	107	99.6	100	93.9	92.7
K-562 [7]	92.1	98.9	98.5	111	106
KCL-22	88.6	98.9	103	109	111
KG-1	99	96.6	100	97.6	98.6
KU-812 [6]	90.9	93.6	100	99.5	87.5
LAMA-84	102	91	96.8	99.2	97.9
ML-2	103	90.1	95.8	112	97.8
MOLM-13	83.9	107	105	99.8	99.3
MV4-11 [5]	91.6	84	106	133	98.8
Mono-Mac-6 [4]	90.8	88.2	94.6	107	83.2
NOMO-1 [3]	93.4	99.7	99.4	101	103
SHI-1	93.7	106	108	107	103
THP-1	97.8	98.5	97.5	106	95.4

Settings	IC50 (cell viability) [µM]
K-562 [12]	> 10
KU-812 [11]	> 10
MV4-11 [10]	> 10
Mono-Mac-6 [9]	> 10
NOMO-1 [8]	> 10

CCN(CC)C(=S)SSC(=S)N(CC)CC [Disulfiram]
cell viability [%], HL-60 [1]
Settings	0.001 µM	0.01 µM	0.1 µM	1 µM	10 µM
co-treatment: AZD3965 100 nM	104 ± 2.5	101 ± 6	98.7 ± 8.1	96.7 ± 4.4	101 ± 1.1
co-treatment: DMSO vehicle	100.9 ± 0.6	100.4 ± 0.73	105 ± 3.3	94 ± 5.5	98.66 ± 0.82
co-treatment: GSK2194069 100 nM	100 ± 2.3	95.7 ± 15	102 ± 7	93.1 ± 2.8	102 ± 2.9
co-treatment: pictilisib 100 nM	105.2 ± 0.96	86.4 ± 37	107 ± 2.5	71.25 ± 0.41	102 ± 15

cell viability [%]
Settings	1 nM	10 nM	100 nM	1000 nM	10000 nM
BV-173	96	103	97.6	37.5	-0.175
HEL	101	86.8	96.6	87.9	68
HL-60 [2]	100	104	89.2	83.3	93.7
K-562 [7]	90.2	99.1	89.8	29.7	70.9
KCL-22	72.4	92.3	94.4	61.3	62.7
KG-1	92.7	89.8	92.7	2.8	22
KU-812 [6]	99.7	99.3	97	66	66.9
LAMA-84	93.5	94.5	94.4	90.8	67.7
ML-2	92	106	91.4	6.36	11.6
MOLM-13	94.1	76.7	93.3	98.2	92.7
MV4-11 [5]	94.1	114	98.3	88.7	53.5
Mono-Mac-6 [4]	91.9	100	67.9	25.5	62.5
NOMO-1 [3]	95.3	99.4	101	92	88.9
SHI-1	87.7	92.8	44.8	-0.354	65.1
THP-1	94.5	95.6	48.1	30.5	57.4

Settings	IC50 (cell viability) [µM]
K-562 [12]	0.447
KU-812 [11]	> 10
MV4-11 [10]	7.02
Mono-Mac-6 [9]	0.171
NOMO-1 [8]	> 10

Cc1cc2c(C(C)C)c(O)c(O)c(C=O)c2c(O)c1-c1c(C)cc2c(C(C)C)c(O)c(O)c(C=O)c2c1O [Gossypol]
cell viability [%], HL-60 [1]
Settings	0.001 µM	0.01 µM	0.1 µM	1 µM	10 µM
co-treatment: AZD3965 100 nM	101 ± 4.7	106 ± 1.4	96.1 ± 3.3	102 ± 5.7	2.22 ± 0.25
co-treatment: DMSO vehicle	101 ± 2.6	104 ± 7.8	96.3 ± 2.1	102 ± 3.7	2.19 ± 0.23
co-treatment: GSK2194069 100 nM	107 ± 2.8	104 ± 11	90 ± 5.4	87.6 ± 11	2.81 ± 0.4
co-treatment: pictilisib 100 nM	104 ± 3.8	100 ± 3.6	93.97 ± 0.14	91.4 ± 10	1.94 ± 0.31

cell viability [%]
Settings	1 nM	10 nM	100 nM	1000 nM	10000 nM
BV-173	95.8	90	98.8	68.3	0.788
HEL	101	104	101	108	0.902
HL-60 [2]	107	108	111	117	0.854
K-562 [7]	94.6	103	91	110	1.45
KCL-22	105	101	116	92.7	2.21
KG-1	95.8	98.9	105	101	5.89
KU-812 [6]	95	94.2	105	86.1	0.646
LAMA-84	95.2	106	104	103	0.378
ML-2	103	103	105	82.6	0.171
MOLM-13	104	97.6	95.2	97.1	-0.453
MV4-11 [5]	97.7	91.2	93.6	104	-0.358
Mono-Mac-6 [4]	94.6	85.5	112	91.8	0.586
NOMO-1 [3]	97.2	97.5	104	94.1	0.946
SHI-1	101	106	105	98.2	28
THP-1	95.3	90.3	96.6	84.4	0.727

Settings	IC50 (cell viability) [µM]
K-562 [12]	3.67
KU-812 [11]	2.41
MV4-11 [10]	3.43
Mono-Mac-6 [9]	2.81
NOMO-1 [8]	2.88
